Data as given in patent US12370235B2, “Synthetic, non-natural antimicrobial peptides inspired by Staphylococcus auricularis delta toxin” (University of Saskatchewan, priority 2021, dated 2025).
Ends that are not written are not given here.

Assays:
[1] = system: Candida haemulonii AR 395; assay: MIC, YPD broth, CDC and FDA AR Candida isolate panel; format: cell-based; details: Table 9 below the line: only 200 or 100 μg/mL tested; values reported as 100 are ≤100 μg/mL
Procedure: (§1) MIC determination. MICs were measured using peptides with 95% purity. For bacterial studies, cation-adjusted Mueller Hinton (MH) broth was used as the growth medium whereas Yeast Peptone Dextrose (YPD; 10 g/L yeast extract, 20 g/L peptone, 20 g/L dextrose) was used for Candida spp. and other yeast. Microorganisms were diluted to an optical density of […] in MH or YPD broth and a 180 μl volume was mixed with 20 μl of peptide arrayed as a 2-fold dilution series in a flat-bottom 96-well microtitre plate. A control was performed using 20 μl of sterile water. Plates were incubated as standing cultures overnight at 37° C.

[2] = system: Candida lusitaniae AR 398; assay: as above; format: cell-based; details: Table 9 below the line: only 200 or 100 μg/mL tested; values reported as 100 are ≤100 μg/mL
Procedure: as §1

[3] = system: Candida duobushaemulonii AR 394; assay: as above; format: cell-based; details: Table 9 below the line: only 200 or 100 μg/mL tested; values reported as 100 are ≤100 μg/mL
Procedure: as §1

[4] = system: Candida krusei AR 397; assay: as above; format: cell-based; details: Table 9 below the line: only 200 or 100 μg/mL tested; values reported as 100 are ≤100 μg/mL
Procedure: as §1

[5] = system: Candida duobushaemulonii AR 391; assay: as above; format: cell-based; details: Table 9 below the line: only 200 or 100 μg/mL tested; values reported as 100 are ≤100 μg/mL
Procedure: as §1

[6] = system: Candida duobushaemulonii AR 392; assay: as above; format: cell-based; details: Table 9 below the line: only 200 or 100 μg/mL tested; values reported as 100 are ≤100 μg/mL
Procedure: as §1

[7] = system: Saccharomyces cerevisiae AR 400; assay: as above; format: cell-based; details: Table 9 below the line: only 200 or 100 μg/mL tested; values reported as 100 are ≤100 μg/mL
Procedure: as §1

[8] = system: Kodamae ohmeri AR 396; assay: as above; format: cell-based; details: Table 9 below the line: only 200 or 100 μg/mL tested; values reported as 100 are ≤100 μg/mL
Procedure: as §1

[9] = system: Saccharomyces cerevisiae AR 399; assay: as above; format: cell-based; details: Table 9 below the line: only 200 or 100 μg/mL tested; values reported as 100 are ≤100 μg/mL
Procedure: as §1

[10] = system: Candida haemulonii AR 393; assay: as above; format: cell-based; details: Table 9 below the line: only 200 or 100 μg/mL tested; values reported as 100 are ≤100 μg/mL
Procedure: as §1

[11] = system: C. albicans MYA-2876; assay: MIC, YPD broth; format: cell-based, Candida albicans; details: Table 8
Procedure: as §1
(§2) Determination of minimum inhibitory concentrations. The MICs were measured for bioactive peptides identified from the initial screen. For bacterial studies, cation-adjusted Mueller Hinton (MH) broth was used as the growth medium whereas YPD was used for C. albicans. Bacterial cultures were diluted to a OD value of 6×10^−4 in MH broth and a 180 μl volume was mixed with 20 μl of peptide arrayed as 2-fold dilution series in a 96-well plate. For the positive control, 20 μl of sterile water was used. Plates were incubated as standing cultures overnight at 37° C. The lowest peptide concentration that resulted no observed microbial growth after an overnight treatment was defined as the MIC.

[12] = system: S. aureus ATCC BAA-1683 (MRSA SCCmec type IV); assay: MIC, broth dilution; format: cell-based, Staphylococcus aureus; details: Table 5; STIP3 variants, highest concentration 100 μg/mL
Procedure: as §1, §2

[13] = system: S. aureus ATCC 29213; assay: MIC, broth dilution; format: cell-based, Staphylococcus aureus; details: Table 5; STIP3 variants, highest concentration 100 μg/mL
Procedure: as §1, §2

[14] = system: S. aureus ATCC 33592 (MRSA SCCmec type III); assay: MIC, broth dilution; format: cell-based, Staphylococcus aureus; details: Table 5; STIP3 variants, highest concentration 100 μg/mL
Procedure: as §1, §2

[15] = system: S. aureus ATCC BAA-44 (MRSA SCCmec type I); assay: MIC, broth dilution; format: cell-based, Staphylococcus aureus; details: Table 5; STIP3 variants, highest concentration 100 μg/mL
Procedure: as §1, §2

[16] = system: S. aureus ATCC BAA-42 (MRSA SCCmec type VI); assay: MIC, broth dilution; format: cell-based, Staphylococcus aureus; details: Table 5; STIP3 variants, highest concentration 100 μg/mL
Procedure: as §1, §2

[17] = system: S. aureus ATCC BAA-2094 (MRSA SCCmec type V); assay: MIC, broth dilution; format: cell-based, Staphylococcus aureus; details: Table 5; STIP3 variants, highest concentration 100 μg/mL
Procedure: as §1, §2

[18] = system: S. aureus ATCC BAA-2313 (MRSA SCCmec type XI); assay: MIC, broth dilution; format: cell-based, Staphylococcus aureus; details: Table 5; STIP3 variants, highest concentration 100 μg/mL
Procedure: as §1, §2

[19] = system: S. aureus ATCC BAA-41 (MRSA SCCmec type II); assay: MIC, broth dilution; format: cell-based, Staphylococcus aureus; details: Table 5; STIP3 variants, highest concentration 100 μg/mL
Procedure: as §1, §2

[20] = system: Mannheimia haemolytica ATCC 33393; assay: MIC, broth dilution; format: cell-based; details: Table 11; highest concentration 25 μg/mL
Procedure: as §1, §2
The ability of STIP3 variants to inhibit the growth of Mannheimia haemolytica ATCC 33393 was evaluated. This included an alanine scan of STIP3-1 (FIG. 8 & Table 10) as well as 30 rationally-designed STIPs that were evaluated in the preceding Examples against other pathogens (Table 11). Substitutions at a greater number of sites were tolerated in the context of antimicrobial activity. Moreover, the inclusion of basic natural and unnatural amino acids (e.g. lysine, ornithine, and arginine) at positions 3, 4 and 11 (i.e. X1, X2, and X4 of SEQ ID NO: 32) to afford a more uniformly cationic peptide increased activity against M. haemolytica.

Sequence	MIC (μg/mL) Candida haemulonii AR 395 [1]	MIC (μg/mL) Candida lusitaniae AR 398 [2] [µg/mL]	MIC (μg/mL) Candida duobushaemulonii AR 394 [3]	MIC (μg/mL) Candida krusei AR 397 [4] [µg/mL]	MIC (μg/mL) Candida duobushaemulonii AR 391 [5]	MIC (μg/mL) Candida duobushaemulonii AR 392 [6]	MIC (μg/mL) Saccharomyces cerevisiae AR 400 [7] [µg/mL]	MIC (μg/mL) Kodamae ohmeri AR 396 [8]	MIC (μg/mL) Saccharomyces cerevisiae AR 399 [9] [µg/mL]	MIC (μg/mL) Candida haemulonii AR 393 [10]	MIC C. albicans MYA-2876 [11] [µg/mL]	MIC S. aureus ATCC BAA 1683 (IV) [12] [µg/mL]	MIC S. aureus ATCC 29213 [13] [µg/mL]	MIC S. aureus ATCC 33592 (III) [14] [µg/mL]	MIC S. aureus ATCC BAA 44 (I) [15] [µg/mL]	MIC S. aureus ATCC BAA 42 (VI) [16] [µg/mL]	MIC S. aureus ATCC BAA 2094 (V) [17] [µg/mL]	MIC S. aureus ATCC BAA 2313 (XI) [18] [µg/mL]	MIC S. aureus ATCC BAA 41 (II) [19] [µg/mL]	MIC (μg/mL) M. haemolytica [20]
TVGGLVKWILDTFKKFA [STIP3-11, TVGGLVKWILDTFKKFA]	> (values below the line were determined using two concentrations of peptide 200 or 100 μg/mL)	≤ 100	> (values below the line were determined using two concentrations of peptide 200 or 100 μg/mL)	≤ 100	> (values below the line were determined using two concentrations of peptide 200 or 100 μg/mL)	> (values below the line were determined using two concentrations of peptide 200 or 100 μg/mL)	≤ 100	> (values below the line were determined using two concentrations of peptide 200 or 100 μg/mL)	≤ 100	> (values below the line were determined using two concentrations of peptide 200 or 100 μg/mL)	25	50	50	50	100	50	100	100	50	> (> symbol indicates that no inhibition was observed at the highest concentration of peptide tested: 25 μg/mL)
TVAGLVKWILATVKKFA [STIP3-15, TVAGLVKWILATVKKFA]	> (values below the line were determined using two concentrations of peptide 200 or 100 μg/mL)	≤ 100	> (values below the line were determined using two concentrations of peptide 200 or 100 μg/mL)	≤ 100	> (values below the line were determined using two concentrations of peptide 200 or 100 μg/mL)	> (values below the line were determined using two concentrations of peptide 200 or 100 μg/mL)	≤ 100	≤ 100 µg/mL	≤ 100	> (values below the line were determined using two concentrations of peptide 200 or 100 μg/mL)	25	25	25	12.5	25	50	25	50	50	25 µg/mL
TVGGLVKWILDVVKKFA [STIP3-9, TVGGLVKWILDVVKKFA]	> (values below the line were determined using two concentrations of peptide 200 or 100 μg/mL)	≤ 100	> (values below the line were determined using two concentrations of peptide 200 or 100 μg/mL)	≤ 100	> (values below the line were determined using two concentrations of peptide 200 or 100 μg/mL)	> (values below the line were determined using two concentrations of peptide 200 or 100 μg/mL)	≤ 100	> (values below the line were determined using two concentrations of peptide 200 or 100 μg/mL)	≤ 100	> (values below the line were determined using two concentrations of peptide 200 or 100 μg/mL)	50	25	25	25	25	25	25	25	35	25 µg/mL
TVGGLVKWILDTVKKFI [STIP3-5, TVGGLVKWILDTVKKFI]	> (values below the line were determined using two concentrations of peptide 200 or 100 μg/mL)	≤ 100	> (values below the line were determined using two concentrations of peptide 200 or 100 μg/mL)	≤ 100	> (values below the line were determined using two concentrations of peptide 200 or 100 μg/mL)	> (values below the line were determined using two concentrations of peptide 200 or 100 μg/mL)	≤ 100	> (values below the line were determined using two concentrations of peptide 200 or 100 μg/mL)	≤ 100	> (values below the line were determined using two concentrations of peptide 200 or 100 μg/mL)	100	25	50	25	50	12.5	25	25	25	25 µg/mL
TVGGLVKWILDTVKKFW [STIP3-6, TVGGLVKWILDTVKKFW]	> (values below the line were determined using two concentrations of peptide 200 or 100 μg/mL)	≤ 100	> (values below the line were determined using two concentrations of peptide 200 or 100 μg/mL)	≤ 100	> (values below the line were determined using two concentrations of peptide 200 or 100 μg/mL)	> (values below the line were determined using two concentrations of peptide 200 or 100 μg/mL)	≤ 100	> (values below the line were determined using two concentrations of peptide 200 or 100 μg/mL)	≤ 100	> (values below the line were determined using two concentrations of peptide 200 or 100 μg/mL)	50	12.5	12.5	12.5	25	12.5	12.5	12.5	12.5	25 µg/mL
